Laboratory results published in EP0086256A1, “1-(2,4-Dichlorophenoxy)-3-(3,4-dimethoxy-beta-phenethylamino)-propan-2-0l, processes for its preparation and pharmaceutical compositions containing it” (VEB Arzneimittelwerk Dresden, priority 1981, dated 1983).
Where two headings read alike, the source gives them in different places.

Columns and labels:
[1] = tested on: β2-Rezeptoren der Gefäße; assay: Stimulating effects on vascular β2 receptors, comparison with the known 2,5-dichloro compound; details: compared with the 2,4-Dichlor-Verbindung
Description: 1-Phenoxy-3-alkylamino-propanole-(2) sind mehrfach beschrieben worden (DE-PS 2259 489, DE-PS 2213 044, DD-AP 45 360, BE-PS 783 086, NE-PS 6813 616, GD-PS 1148 563, NE-PS 7307 821, DD-AP 93 349, GB-PS 1078 852, BE-PS 746 107). Auch das 1-(2,5-Dichlor-phenoxy )-3-(3,4-dimethoxy-ß-phenethylamino)-propanol-(2) ist bekannt (JA-0 52033 829); es unterscheidet sich in seiner Wirksamkeit gegenüber der erfindungsgemäßen 2,4-Dichlor-Verbindung jedoch dadurch, daß die ausgeprügten stimulierenden Effekte an den β2-Rezeptoren der Gefäße, die eine große Bedeutung für den therapeutischen Einsatz besitzen, fehlen.

[2] = tested on: Nikotintremor des Meerschweinchens; assay: Nicotine tremor, antiparkinson effect; assay type: in vivo, Meerschweinchen; details: compared with Trihexylphenidyl (Parkopan)
Description: (§1) Aus diesem Grunde ist die Anwendung von nichtselektiv wirkenden β-Rezeptorenblockern bei Patienten mit obstruktiven Atemwegserkrankungen kontraindiziert. Aber auch die Anwendung der sogenannten kardioselektiven ß-Rezeptorenblocker, z. […] Disposition des Patienten zur Dyspnoe führen bzw. einen Asthmaanfall auslösen können.

[3] = in vivo; details: mouse, ip
Description: as §1

[4] = tested on: β1-Rezeptoren; assay: Isoproterenol antagonism, lipolysis in epididymal fat; details: Isoproterenolantagonismus, Propranolol = 100; Ratte
[5] = tested on: adrenergen β2-Rezeptoren der Bronchialmuskulatur; assay: β2 stimulation of bronchial muscle, isolated tracheal muscle and whole animal; details: am isolierten Trachealmuskel als auch im Ganztierversuch
Description: as §1

[6] = biological target: T1, β1-Rezeptoren (Canis lupus familiaris, UniProt P79148); assay: β1 blockade, heart rate and contractility in the whole animal; assay type: in vivo; details: Hund; relative to Propranolol
T1 construct: from tissue; host or cells: dog, whole animal (heart)
Description: as §1

[7] = biological target: T2, β1-Rezeptoren (Felis catus, UniProt Q9TST6); assay: as above; assay type: in vivo; details: Katze; relative to Propranolol
T2 construct: from tissue; host or cells: cat, whole animal (heart)
Description: as §1

[8] = biological target: T3, adrenergen β2-Rezeptoren der Bronchialmuskulatur (Cavia porcellus, UniProt Q8K4Z4); assay: Tolerance time to asthma-inducing histamine in the conscious guinea pig; assay type: in vivo, Meerschweinchen; details: read-out: ED50, Verdopplung der Toleranzzeit gegenüber dem asthmaauslösenden Histamin
T3 construct: from tissue; host or cells: conscious guinea pig, whole animal (airways)
Description: as §1

[9] = tested on: elektrischen Flimmerschwelle; assay: Antiarrhythmic effect, rise of the electrical fibrillation threshold; assay type: in vivo, Meerschweinchen; details: for ED50: Cavia porcellus, read-out: ED50, Erhöhung der elektrischen Flimmerschwelle
Description: as §1

[10] = tested on: Myokardinfarktmodell der Ratte; assay: Myocardial infarction model, prophylactic oral dosing before coronary ligation; details: relative to Propranolol; orale Applikation von 3,6 und 12 mg/kg I über 28 Tage vor Ligatur der A. coronaria sinistra; CPK, GOT, EKG-Veränderungen, relatives Infarktgewicht
[11] = biological target: T4, β2-Rezeptoren der Gefäße (Canis lupus familiaris, UniProt P54833); assay: Influence on the blood-pressure-lowering effect of isoproterenol; assay type: in vivo; details: Hund
T4 construct: from tissue; host or cells: dog, whole animal (blood vessels; bronchial muscle in the anaesthetised dog)
Description: as §1

[12] = biological target: T5, β2-Rezeptoren der Gefäße (Felis catus, UniProt Q9TST5); assay: as above; assay type: in vivo; details: Katze
T5 construct: from tissue; host or cells: cat, whole animal (blood vessels)
Description: as §1

[13] = biological target: T6, adrenergen β2-Rezeptoren der Bronchialmuskulatur (Canis lupus familiaris, UniProt P54833); assay: Respiratory minute volume in the anaesthetised dog; assay type: in vivo; details: narkotisierter Hund; 0,1 mg/kg
T6 construct: from tissue; host or cells: dog, whole animal (blood vessels; bronchial muscle in the anaesthetised dog)
Description: as §1

[14] = tested on: β1-Rezeptoren; assay: Isoproterenol antagonism, intestinal peristalsis; details: Isoproterenolantagonismus, Propranolol = 100; Kaninchen
[15] = tested on: spontan hypertensive Ratte; assay: Antihypertensive effect in the spontaneously hypertensive rat; assay type: in vivo; details: fold stronger than Propranolol
Description: as §1

T3 sequence (Q8K4Z4 whole entry): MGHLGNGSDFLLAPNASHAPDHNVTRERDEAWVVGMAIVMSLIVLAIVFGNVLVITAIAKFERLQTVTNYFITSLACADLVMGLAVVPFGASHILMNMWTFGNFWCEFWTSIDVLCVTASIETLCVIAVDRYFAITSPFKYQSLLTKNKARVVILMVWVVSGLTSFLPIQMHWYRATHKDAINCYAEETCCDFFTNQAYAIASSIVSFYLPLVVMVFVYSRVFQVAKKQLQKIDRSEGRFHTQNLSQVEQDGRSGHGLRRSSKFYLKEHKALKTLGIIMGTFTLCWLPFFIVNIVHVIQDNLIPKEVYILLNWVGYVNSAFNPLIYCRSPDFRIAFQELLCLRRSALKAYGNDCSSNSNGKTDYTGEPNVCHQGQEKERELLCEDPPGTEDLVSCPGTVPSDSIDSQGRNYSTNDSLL
T5 sequence (Q9TST5 whole entry): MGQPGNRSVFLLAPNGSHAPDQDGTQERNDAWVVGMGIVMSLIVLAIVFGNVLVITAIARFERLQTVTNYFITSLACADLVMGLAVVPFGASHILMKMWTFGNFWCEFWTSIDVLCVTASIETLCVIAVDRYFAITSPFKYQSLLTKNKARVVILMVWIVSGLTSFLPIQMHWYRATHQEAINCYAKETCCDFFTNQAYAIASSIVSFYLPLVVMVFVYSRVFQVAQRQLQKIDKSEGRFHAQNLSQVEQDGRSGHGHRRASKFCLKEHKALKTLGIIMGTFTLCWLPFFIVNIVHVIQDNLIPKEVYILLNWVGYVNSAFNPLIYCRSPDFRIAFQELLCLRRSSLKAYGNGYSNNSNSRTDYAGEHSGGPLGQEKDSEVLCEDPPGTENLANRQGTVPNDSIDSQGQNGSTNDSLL
T6 sequence (P54833 whole entry): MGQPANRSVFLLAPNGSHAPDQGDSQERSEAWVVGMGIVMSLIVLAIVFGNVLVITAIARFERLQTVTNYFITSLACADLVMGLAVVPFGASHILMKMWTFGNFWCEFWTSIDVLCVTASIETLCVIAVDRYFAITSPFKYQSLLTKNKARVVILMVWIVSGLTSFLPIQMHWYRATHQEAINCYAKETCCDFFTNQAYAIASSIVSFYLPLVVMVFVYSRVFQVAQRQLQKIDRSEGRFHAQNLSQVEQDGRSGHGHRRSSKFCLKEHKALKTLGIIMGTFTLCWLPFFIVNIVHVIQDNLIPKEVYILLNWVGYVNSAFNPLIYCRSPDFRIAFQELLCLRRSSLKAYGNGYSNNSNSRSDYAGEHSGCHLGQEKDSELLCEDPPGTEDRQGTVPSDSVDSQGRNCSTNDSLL
T4 sequence (P54833 whole entry): as above
T2 sequence (Q9TST6 whole entry): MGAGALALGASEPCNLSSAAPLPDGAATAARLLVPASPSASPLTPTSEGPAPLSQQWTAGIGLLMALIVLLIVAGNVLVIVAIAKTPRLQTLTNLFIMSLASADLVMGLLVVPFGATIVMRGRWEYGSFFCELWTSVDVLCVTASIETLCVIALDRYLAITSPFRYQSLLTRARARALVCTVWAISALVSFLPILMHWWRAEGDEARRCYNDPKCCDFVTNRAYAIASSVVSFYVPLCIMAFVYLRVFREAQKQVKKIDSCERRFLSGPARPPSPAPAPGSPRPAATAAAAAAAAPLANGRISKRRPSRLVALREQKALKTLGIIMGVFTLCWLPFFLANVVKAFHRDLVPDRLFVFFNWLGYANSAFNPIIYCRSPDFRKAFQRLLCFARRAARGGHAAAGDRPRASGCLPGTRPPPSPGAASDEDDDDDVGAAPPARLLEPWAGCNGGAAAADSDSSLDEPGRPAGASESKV
T1 sequence (P79148 whole entry): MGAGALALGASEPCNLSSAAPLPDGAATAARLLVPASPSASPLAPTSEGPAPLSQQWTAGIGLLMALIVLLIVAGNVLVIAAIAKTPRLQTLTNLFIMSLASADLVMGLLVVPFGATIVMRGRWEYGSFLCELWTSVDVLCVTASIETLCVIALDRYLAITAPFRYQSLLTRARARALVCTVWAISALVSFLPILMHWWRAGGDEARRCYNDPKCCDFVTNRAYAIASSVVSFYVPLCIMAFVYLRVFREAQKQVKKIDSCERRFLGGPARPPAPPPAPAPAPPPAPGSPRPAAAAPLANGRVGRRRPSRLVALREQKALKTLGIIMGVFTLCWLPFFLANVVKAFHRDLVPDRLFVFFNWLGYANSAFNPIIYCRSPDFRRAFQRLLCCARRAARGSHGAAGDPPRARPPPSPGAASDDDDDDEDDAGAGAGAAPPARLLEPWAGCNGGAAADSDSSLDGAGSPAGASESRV

## COc1ccc(CCNCC(O)COc2cc(Cl)ccc2Cl)cc1OC (stereo not shown) [1-(2,5-Dichlor-phenoxy)-3-(3,4-dimethoxy-ß-phenethylamino)-propanol-(2)]
[1]
  stimulierende Effekte an den β2-Rezeptoren der Gefäße: fehlen

## COc1ccc(CCNCC(O)COc2ccc(Cl)cc2Cl)cc1OC (stereo not drawn) [I, 1-(2,4-Dichlorphenoxy)-3-(3,4-dimethoxy-β-phenethylamino)-propanol-(2)]
[2]
  Antiparkinsonwirkung: etwa die gleiche Antiparkinsonwirkung wie Trihexylphenidyl
[3]
  LD50: 141 mg/kg
[4]
  Stärke der β1-Rezeptorenblockade, Lipolyse (Epiditymalfett): 220
[5]
  Stimulation der adrenergen β2-Rezeptoren der Bronchialmuskulatur: nachweisen läßt
[6]
  Wirksamkeit an den β1-Rezeptoren (Herzfrequenz und Kontralctilität am Ganztier): nur halb so wirksam wie Propranolol
[7]
  Wirksamkeit an den β1-Rezeptoren (Herzfrequenz und Kontralctilität am Ganztier): nur halb so wirksam wie Propranolol
[8]
  ED50: 0.76 mg/kg
[9]; Meerschweinchen
  ED50: 0.22 mg/kg
[10]
  kardioprotektive Wirkung: zweimal
[11]
  blutdrucksenkender Effekt des Isoproterenols: Verstärkung der Isoproterenolwirkung
[12]
  blutdrucksenkender Effekt des Isoproterenols: Verstärkung der Isoproterenolwirkung
[13]
  Atemzeitvolumen: isoproterenolähnlichen Vergrößerung des Atemzeitvolumens
[14]
  Stärke der β1-Rezeptorenblockade, Darmperistaltik: 100
[15]
  antihypertensiver Effekt: ~10

## CC(C)NCC(O)c1ccc(O)c(O)c1 (stereo not shown) [Isoproterenol, reference compound]
[8]
  ED50: 0.04 mg/kg

## CC(C)NCC(O)COc1cccc2ccccc12 (stereo not shown) [Propranolol, reference compound]
[9]; Meerschweinchen
  ED50: 1.4 mg/kg
[12]
  blutdrucksenkender Effekt des Isoproterenols: aufhebt

## CC(C)(C)NCC(O)COc1ccc(NC(=O)NC2CCCCC2)cc1 (stereo not shown) [Talinolol, reference compound]
[4]
  Stärke der β1-Rezeptorenblockade, Lipolyse (Epiditymalfett): 96
[9]
  ED50: 0.31 mg/kg
[14]
  Stärke der β1-Rezeptorenblockade, Darmperistaltik: 35

## Tachmalin
[9]; Meerschweinchen
  ED50, Erhöhung der elektrischen Flimmerschwelle: 0,71 mg/kg
